Experimental data reported in ChEMBL document CHEMBL4507291 (2021).

What was measured:
[1] = biological target: Tyrosine-protein kinase Fes/Fps (Homo sapiens) (UniProt P07332); test: FES (FPS) Kinase screen; details: Compound concentration 1.0 uM
[2] = biological target: T1, Serine/threonine-protein kinase TBK1 (Homo sapiens) (UniProt Q9UHD2); test: TBK1 Kinase screen; details: Compound concentration 1.0 uM
T1 sequence (whole entry): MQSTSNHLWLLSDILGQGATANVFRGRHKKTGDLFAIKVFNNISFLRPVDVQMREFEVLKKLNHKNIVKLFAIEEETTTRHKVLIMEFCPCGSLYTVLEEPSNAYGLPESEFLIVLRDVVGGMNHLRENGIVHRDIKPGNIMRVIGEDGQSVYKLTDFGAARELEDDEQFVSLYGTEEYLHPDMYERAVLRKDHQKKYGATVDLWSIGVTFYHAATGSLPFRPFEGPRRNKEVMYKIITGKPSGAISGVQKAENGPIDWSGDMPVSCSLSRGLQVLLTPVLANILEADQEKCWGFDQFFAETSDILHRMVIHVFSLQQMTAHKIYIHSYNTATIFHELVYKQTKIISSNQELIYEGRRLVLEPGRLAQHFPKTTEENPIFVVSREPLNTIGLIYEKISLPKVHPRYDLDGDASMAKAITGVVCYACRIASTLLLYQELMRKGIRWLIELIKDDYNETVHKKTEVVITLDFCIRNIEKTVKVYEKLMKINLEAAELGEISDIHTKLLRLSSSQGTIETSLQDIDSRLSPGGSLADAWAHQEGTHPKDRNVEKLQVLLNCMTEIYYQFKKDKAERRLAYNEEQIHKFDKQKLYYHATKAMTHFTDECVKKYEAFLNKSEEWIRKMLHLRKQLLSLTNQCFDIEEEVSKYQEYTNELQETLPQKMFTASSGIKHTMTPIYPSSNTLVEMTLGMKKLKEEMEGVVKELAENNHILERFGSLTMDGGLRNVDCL

[3] = biological target: Receptor-interacting serine/threonine-protein kinase 2 (Homo sapiens) (UniProt O43353); test: RIPK2 Kinase screen; details: Compound concentration 1.0 uM
[4] = biological target: BDNF/NT-3 growth factors receptor (Homo sapiens) (UniProt Q16620); test: NTRK2 (TRKB) Kinase screen; details: Compound concentration 1.0 uM
[5] = biological target: Protein kinase C eta type (Homo sapiens) (UniProt P24723); test: PRKCH (PKC eta) Kinase screen; details: Compound concentration 1.0 uM
[6] = biological target: Serine/threonine-protein kinase PAK 2 (Homo sapiens) (UniProt Q13177); test: PAK2 (PAK65) Kinase screen; details: Compound concentration 1.0 uM
[7] = biological target: Casein kinase I isoform delta (Homo sapiens) (UniProt P48730); test: CSNK1D (CK1 delta) Kinase screen; details: Compound concentration 1.0 uM
[8] = biological target: 5-hydroxytryptamine receptor 1B (Homo sapiens) (UniProt P28222); test: Inhibition of Serotonin (5-Hydroxytryptamine) 5-HT1B at 10 µM in the Eurofins-Panlabs radioligand binding assay (Eurofins_assay_271200); details: Compound concentration 10.0 uM
[9] = biological target: Mitogen-activated protein kinase kinase kinase 8 (Homo sapiens) (UniProt P41279); test: MAP3K8 (COT) Kinase screen; details: Compound concentration 1.0 uM
[10] = biological target: Cathepsin G (Homo sapiens) (UniProt P08311); test: Inhibition of Peptidase, CTSG (Cathepsin G) at 10 µM in the Eurofins-Panlabs enzyme assay (Eurofins_assay_112510); design: substrate with concentration; details: Compound concentration 10.0 uM
[11] = biological target: CDK9/Cyclin K (Homo sapiens) (UniProt P50750+O75909); test: CDK9/cyclin K Kinase screen; format: protein-complex assay; details: Compound concentration 1.0 uM
[12] = biological target: T2, Activin receptor type-1 (Homo sapiens) (UniProt Q04771); test: ACVR1 (ALK2) Kinase screen; details: Compound concentration 1.0 uM
T2 sequence (whole entry): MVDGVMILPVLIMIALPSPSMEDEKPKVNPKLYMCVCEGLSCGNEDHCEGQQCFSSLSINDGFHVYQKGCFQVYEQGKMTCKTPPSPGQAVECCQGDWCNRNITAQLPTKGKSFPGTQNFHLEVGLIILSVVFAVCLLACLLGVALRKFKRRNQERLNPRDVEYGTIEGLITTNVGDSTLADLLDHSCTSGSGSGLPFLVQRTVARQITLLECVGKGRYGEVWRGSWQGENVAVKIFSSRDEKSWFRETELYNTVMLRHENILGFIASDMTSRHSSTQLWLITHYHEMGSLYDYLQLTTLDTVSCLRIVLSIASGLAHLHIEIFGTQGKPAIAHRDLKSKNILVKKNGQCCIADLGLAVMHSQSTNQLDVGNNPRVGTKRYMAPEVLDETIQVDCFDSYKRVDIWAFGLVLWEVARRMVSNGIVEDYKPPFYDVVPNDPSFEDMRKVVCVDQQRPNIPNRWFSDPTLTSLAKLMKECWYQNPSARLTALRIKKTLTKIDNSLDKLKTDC

[13] = biological target: T3, Serine/threonine-protein kinase 3 (Homo sapiens) (UniProt Q13188); test: STK3 (MST2) Kinase screen; details: Compound concentration 1.0 uM
T3 sequence (whole entry): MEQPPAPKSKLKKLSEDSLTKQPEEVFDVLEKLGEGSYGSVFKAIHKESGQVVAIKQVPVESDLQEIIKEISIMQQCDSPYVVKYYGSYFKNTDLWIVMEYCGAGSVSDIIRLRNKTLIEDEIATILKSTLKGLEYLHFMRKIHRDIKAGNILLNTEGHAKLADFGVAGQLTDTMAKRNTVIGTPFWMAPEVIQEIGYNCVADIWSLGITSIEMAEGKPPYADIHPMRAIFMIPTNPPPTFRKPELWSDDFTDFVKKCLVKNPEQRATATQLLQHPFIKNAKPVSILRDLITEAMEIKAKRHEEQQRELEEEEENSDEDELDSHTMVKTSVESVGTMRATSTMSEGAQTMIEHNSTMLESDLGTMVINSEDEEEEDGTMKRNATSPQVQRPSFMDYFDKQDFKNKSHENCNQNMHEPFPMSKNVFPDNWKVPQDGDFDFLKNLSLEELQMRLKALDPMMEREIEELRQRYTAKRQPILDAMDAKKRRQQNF

[14] = biological target: Neuropeptide Y receptor type 2 (Homo sapiens) (UniProt P49146); test: Inhibition of Neuropeptide Y Y2 at 10 µM in the Eurofins-Panlabs radioligand binding assay (Eurofins_assay_257110); details: Compound concentration 10.0 uM
[15] = species: Bos taurus; test: Protein Serine/Threonine Kinase, PKA, Non-Selective Eurofins-Panlabs enzyme assay; format: protein-complex assay; design: substrate with concentration 370 µg/mL Histone Type III-S, incubation time 15 min, incubation temperature 25 °C; details: Compound concentration 10.0 uM
[16] = biological target: SRSF protein kinase 2 (Homo sapiens) (UniProt P78362); test: SRPK2 Kinase screen; details: Compound concentration 1.0 uM
[17] = biological target: Testis-specific serine/threonine-protein kinase 2 (Homo sapiens) (UniProt Q96PF2); test: STK22B (TSSK2) Kinase screen; details: Compound concentration 1.0 uM
[18] = biological target: LIM domain kinase 2 (Homo sapiens) (UniProt P53671); test: LIMK2 Kinase screen; details: Compound concentration 1.0 uM

Measured: inhibition

Sequence of Serine/threonine-protein kinase PAK 2 (Homo sapiens) (Q13177 whole entry, canonical isoform): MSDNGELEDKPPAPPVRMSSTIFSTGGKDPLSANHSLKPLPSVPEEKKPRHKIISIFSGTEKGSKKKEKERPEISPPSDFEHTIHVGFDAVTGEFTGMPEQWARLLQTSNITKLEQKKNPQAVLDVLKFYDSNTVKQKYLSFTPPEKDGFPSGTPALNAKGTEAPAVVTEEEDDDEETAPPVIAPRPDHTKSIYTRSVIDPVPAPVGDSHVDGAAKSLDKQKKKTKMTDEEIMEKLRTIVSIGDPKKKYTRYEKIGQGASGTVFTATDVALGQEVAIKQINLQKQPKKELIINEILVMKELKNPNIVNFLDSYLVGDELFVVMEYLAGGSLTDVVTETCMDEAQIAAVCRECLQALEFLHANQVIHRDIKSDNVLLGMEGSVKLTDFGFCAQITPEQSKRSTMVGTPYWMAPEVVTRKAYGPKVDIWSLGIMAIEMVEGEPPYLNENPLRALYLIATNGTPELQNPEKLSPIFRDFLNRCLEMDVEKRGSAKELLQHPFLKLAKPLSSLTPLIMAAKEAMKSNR
Sequence of Protein kinase C eta type (Homo sapiens) (P24723 whole entry): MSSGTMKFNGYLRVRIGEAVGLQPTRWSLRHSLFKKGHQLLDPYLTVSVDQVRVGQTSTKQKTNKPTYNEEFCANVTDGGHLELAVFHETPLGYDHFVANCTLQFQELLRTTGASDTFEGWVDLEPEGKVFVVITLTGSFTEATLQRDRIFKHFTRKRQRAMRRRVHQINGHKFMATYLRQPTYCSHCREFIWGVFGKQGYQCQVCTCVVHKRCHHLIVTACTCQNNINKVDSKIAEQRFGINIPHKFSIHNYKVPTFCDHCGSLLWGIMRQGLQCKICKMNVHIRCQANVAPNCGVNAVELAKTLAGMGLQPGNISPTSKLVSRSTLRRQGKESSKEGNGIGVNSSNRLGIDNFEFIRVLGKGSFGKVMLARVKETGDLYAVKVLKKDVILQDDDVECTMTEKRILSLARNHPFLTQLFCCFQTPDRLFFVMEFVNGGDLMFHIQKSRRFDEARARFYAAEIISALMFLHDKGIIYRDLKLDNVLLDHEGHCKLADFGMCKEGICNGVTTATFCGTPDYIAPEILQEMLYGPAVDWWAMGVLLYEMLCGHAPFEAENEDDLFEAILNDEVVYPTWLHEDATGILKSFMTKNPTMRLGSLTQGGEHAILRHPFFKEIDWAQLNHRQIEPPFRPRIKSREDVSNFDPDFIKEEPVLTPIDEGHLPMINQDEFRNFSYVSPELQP
Sequence of 5-hydroxytryptamine receptor 1B (Homo sapiens) (P28222 whole entry): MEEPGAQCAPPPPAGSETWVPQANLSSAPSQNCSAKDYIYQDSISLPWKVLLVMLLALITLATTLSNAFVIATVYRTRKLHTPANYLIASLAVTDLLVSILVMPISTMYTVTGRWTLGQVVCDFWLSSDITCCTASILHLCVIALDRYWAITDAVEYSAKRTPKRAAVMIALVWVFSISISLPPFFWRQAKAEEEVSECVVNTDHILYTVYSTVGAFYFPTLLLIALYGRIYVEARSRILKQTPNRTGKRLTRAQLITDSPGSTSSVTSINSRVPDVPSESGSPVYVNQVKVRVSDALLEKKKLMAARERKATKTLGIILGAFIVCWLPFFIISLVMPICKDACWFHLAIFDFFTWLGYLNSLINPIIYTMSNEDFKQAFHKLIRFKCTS
Sequence of Tyrosine-protein kinase Fes/Fps (Homo sapiens) (P07332 whole entry): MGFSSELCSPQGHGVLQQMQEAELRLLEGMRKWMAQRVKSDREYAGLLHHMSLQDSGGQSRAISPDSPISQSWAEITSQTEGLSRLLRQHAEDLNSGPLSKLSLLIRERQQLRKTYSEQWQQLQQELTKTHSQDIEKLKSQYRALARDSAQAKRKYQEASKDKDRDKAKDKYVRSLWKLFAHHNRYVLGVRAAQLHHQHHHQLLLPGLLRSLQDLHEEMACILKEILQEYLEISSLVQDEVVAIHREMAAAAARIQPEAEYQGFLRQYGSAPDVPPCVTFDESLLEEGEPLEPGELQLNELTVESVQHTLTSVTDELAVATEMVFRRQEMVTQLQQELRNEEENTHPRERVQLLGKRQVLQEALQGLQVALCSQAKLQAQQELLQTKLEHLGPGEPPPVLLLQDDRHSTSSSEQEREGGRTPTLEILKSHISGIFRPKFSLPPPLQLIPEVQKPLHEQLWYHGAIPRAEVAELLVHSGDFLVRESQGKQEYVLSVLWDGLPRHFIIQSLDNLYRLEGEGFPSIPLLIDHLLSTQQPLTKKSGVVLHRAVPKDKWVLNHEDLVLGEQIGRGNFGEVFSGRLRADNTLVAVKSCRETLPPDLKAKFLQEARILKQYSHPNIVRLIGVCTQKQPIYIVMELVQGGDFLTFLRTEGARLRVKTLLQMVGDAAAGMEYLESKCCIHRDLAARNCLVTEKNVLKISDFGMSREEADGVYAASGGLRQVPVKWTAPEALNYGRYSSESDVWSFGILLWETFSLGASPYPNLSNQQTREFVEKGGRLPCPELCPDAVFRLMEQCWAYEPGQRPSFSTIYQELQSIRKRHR
Sequence of Casein kinase I isoform delta (Homo sapiens) (P48730 whole entry, looked up, canonical isoform): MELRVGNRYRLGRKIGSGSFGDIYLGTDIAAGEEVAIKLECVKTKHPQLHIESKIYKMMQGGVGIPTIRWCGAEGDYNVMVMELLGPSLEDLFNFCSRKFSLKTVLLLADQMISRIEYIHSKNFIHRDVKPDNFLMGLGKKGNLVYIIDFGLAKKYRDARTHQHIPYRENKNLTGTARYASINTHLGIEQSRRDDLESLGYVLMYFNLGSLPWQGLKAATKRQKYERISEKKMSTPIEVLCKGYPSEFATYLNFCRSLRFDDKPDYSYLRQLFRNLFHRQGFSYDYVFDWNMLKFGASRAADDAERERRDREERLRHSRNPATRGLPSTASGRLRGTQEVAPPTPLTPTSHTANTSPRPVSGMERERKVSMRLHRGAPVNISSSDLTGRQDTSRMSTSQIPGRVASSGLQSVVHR
Sequence of Cathepsin G (Homo sapiens) (P08311 whole entry): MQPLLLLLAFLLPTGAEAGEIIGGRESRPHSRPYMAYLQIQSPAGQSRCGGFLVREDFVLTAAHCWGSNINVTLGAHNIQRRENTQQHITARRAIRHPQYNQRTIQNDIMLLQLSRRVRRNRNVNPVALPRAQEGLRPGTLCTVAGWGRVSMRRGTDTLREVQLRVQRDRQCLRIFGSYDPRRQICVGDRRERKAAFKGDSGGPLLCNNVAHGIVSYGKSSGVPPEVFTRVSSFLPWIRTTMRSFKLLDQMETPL
Sequence of Neuropeptide Y receptor type 2 (Homo sapiens) (P49146 whole entry): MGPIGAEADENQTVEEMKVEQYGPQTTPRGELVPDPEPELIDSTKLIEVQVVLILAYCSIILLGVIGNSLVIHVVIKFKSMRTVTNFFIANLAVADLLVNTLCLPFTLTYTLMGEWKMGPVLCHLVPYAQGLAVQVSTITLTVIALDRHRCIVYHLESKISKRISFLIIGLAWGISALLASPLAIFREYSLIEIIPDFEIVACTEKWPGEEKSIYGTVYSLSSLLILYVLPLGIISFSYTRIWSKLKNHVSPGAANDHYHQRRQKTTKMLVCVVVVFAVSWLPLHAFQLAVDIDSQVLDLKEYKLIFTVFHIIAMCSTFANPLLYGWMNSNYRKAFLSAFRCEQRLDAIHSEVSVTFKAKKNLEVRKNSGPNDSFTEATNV
Sequence of Testis-specific serine/threonine-protein kinase 2 (Homo sapiens) (Q96PF2 whole entry, the tested form may be a part): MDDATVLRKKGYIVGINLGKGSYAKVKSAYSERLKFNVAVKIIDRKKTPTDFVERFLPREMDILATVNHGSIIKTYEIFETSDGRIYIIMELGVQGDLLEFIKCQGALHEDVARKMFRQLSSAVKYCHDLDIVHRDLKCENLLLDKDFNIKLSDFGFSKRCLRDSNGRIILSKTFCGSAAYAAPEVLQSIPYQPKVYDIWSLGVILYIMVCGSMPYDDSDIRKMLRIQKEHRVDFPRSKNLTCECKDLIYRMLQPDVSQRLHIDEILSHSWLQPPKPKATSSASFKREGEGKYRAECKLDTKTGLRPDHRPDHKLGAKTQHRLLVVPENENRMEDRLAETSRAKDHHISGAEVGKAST
Sequence of SRSF protein kinase 2 (Homo sapiens) (P78362 whole entry, looked up): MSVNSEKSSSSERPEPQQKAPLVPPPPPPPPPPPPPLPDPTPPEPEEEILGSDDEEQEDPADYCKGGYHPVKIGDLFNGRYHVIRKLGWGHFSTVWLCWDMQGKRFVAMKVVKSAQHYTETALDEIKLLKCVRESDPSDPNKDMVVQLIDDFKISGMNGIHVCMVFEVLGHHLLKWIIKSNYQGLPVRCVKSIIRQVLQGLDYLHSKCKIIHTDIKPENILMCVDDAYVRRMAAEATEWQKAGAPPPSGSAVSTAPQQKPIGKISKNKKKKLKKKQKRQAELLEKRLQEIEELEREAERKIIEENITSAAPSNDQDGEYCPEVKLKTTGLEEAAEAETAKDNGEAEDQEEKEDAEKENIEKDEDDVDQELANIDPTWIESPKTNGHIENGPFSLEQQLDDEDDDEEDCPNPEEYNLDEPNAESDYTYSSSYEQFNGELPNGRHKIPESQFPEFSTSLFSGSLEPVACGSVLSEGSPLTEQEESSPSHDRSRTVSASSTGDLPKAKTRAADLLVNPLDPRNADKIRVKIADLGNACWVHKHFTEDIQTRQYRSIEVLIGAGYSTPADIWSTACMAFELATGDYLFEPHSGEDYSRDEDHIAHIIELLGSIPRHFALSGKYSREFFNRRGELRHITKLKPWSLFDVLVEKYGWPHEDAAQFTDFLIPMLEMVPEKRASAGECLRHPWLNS
Sequence of Mitogen-activated protein kinase kinase kinase 8 (Homo sapiens) (P41279 whole entry): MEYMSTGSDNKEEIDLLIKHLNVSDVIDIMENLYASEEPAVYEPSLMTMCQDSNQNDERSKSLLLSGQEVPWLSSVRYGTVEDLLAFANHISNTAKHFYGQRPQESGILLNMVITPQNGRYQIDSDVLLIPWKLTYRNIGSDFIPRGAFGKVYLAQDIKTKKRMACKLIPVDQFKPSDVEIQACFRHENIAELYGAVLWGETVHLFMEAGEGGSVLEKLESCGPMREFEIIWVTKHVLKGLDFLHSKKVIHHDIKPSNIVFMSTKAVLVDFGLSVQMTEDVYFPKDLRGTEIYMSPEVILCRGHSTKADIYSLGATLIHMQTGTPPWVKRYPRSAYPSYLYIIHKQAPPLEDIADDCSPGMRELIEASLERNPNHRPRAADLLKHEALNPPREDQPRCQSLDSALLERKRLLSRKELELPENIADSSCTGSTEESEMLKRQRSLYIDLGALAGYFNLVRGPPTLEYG

C[C@@H]1CN(c2cc(-c3n[nH]c4ccc(OC5(C)CC5)cc34)ncn2)C[C@H](C)O1 [MLi-2]
inactive: [1] 6.03% | [2] 7.78% | [3] -0.0326% | [4] 7.02% | [5] 6.4% | [6] 8.73% | [7] 0.974% | [8] 0% | [9] 16.3% | [10] 9% | [11] -2.24% | [12] 10.7% | [13] 11.9% | [14] 1% | [15] 16% | [16] 0.838% | [17] 10.2% | [18] 0.642%
